Results from ChEMBL document CHEMBL3797191, “Isocoumarins, miraculous natural products blessed with diverse pharmacological activities” (Eur J Med Chem, 2016).
In brackets after ≈: the same amount, converted by molar mass. One block for each compound: values may come before it.

Experiments:
Kallikrein-5 = target: T1, Kallikrein-5 (Homo sapiens, UniProt Q9Y337); test: Competitive inhibition of human kallikrein-5
T1 sequence (Q9Y337 whole entry): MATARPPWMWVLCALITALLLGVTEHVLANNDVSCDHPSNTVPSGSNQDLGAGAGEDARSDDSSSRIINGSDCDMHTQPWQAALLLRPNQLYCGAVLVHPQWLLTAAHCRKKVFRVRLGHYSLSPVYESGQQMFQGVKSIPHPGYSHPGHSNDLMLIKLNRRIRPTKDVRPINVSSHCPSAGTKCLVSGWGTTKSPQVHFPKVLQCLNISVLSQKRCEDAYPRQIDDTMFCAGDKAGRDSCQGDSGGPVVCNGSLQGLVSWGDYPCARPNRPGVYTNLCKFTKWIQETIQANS

Rattus norvegicus = test: Anti-ulcer activity in Sprague-Dawley rat stomach assessed as protection against stress-induced gastric ulcer at 25 mg/kg, po pretreated for 30 mins followed by stress measured after 6 hrs relative to control; format: functional
HepG2 = test: Cytotoxicity against human HepG2 cells; format: functional, cell-based
MCF7 [1] = test: Cytotoxicity against human MCF7 cells; format: functional, cell-based
Echinochloa frumentacea = test: Growth inhibition of Barnyard millet seeds at 50 uM after 5 days relative to control; format: functional; settings: 120 h, read-out: GI
KB [2] = test: Cytotoxicity against human KB cells assessed as reduction in cell viability by resazurin microplate assay; format: functional, cell-based
NCI-H187 [3] = test: Cytotoxicity against human NCI-H187 cells assessed as reduction in cell viability by resazurin microplate assay; format: functional, cell-based
KB [4] = test: Cytotoxicity against human KB cells; format: functional, cell-based
NCI-H187 [5] = test: Cytotoxicity against human NCI-H187 cells; format: functional, cell-based
[6] = Therapeutic ratio of LC50 to EC50 for Balanus amphitritea; format: ADME; settings: amphibalanus amphitrite; read-out: TI
Tobacco mosaic virus [7] = test: Antiviral activity against TMV assessed as inhibition of viral infection at 20 uM by half-leaf method relative to control; format: functional
MCF7 [8] = test: Cytotoxicity against human MCF7 cells assessed as reduction in cell viability after 3 days by MTT assay; format: functional, cell-based; settings: MCF7, 72 h
A549 [9] = test: Cytotoxicity against human A549 cells assessed as reduction in cell viability after 3 days by MTT assay; format: functional, cell-based; settings: A549, 72 h
Tobacco mosaic virus [10] = test: Antiviral activity against TMV infected in Nicotiana glutinosa leaves assessed as inhibition of lesions at 20 uM pretreated for 30 mins followed by viral infection measured after 3 to 4 days by half-leaf method relative to control; format: functional
[11] = Cytotoxicity against human NB4 cells assessed as reduction in cell viability after 48 hrs by MTT assay; format: functional, cell-based; settings: NB-4, 48 h
A549 [12] = test: Cytotoxicity against human A549 cells assessed as reduction in cell viability after 48 hrs by MTT assay; format: functional, cell-based; settings: A549, 48 h
SH-SY5Y = test: Cytotoxicity against human SH-SY5Y cells assessed as reduction in cell viability after 48 hrs by MTT assay; format: functional, cell-based
[13] = Cytotoxicity against human PC3 cells assessed as reduction in cell viability after 48 hrs by MTT assay; format: functional, cell-based; settings: PC-3, 48 h
MCF7 [14] = test: Cytotoxicity against human MCF7 cells assessed as reduction in cell viability after 48 hrs by MTT assay; format: functional, cell-based; settings: MCF7, 48 h
Kallikrein-7 = Kallikrein-7 (Homo sapiens, UniProt P49862); test: Competitive inhibition of human kallikrein-7
Aromatase = target: T2, Aromatase (Homo sapiens, UniProt P11511); test: Inhibition of aromatase (unknown origin)
T2 sequence (P11511 whole entry): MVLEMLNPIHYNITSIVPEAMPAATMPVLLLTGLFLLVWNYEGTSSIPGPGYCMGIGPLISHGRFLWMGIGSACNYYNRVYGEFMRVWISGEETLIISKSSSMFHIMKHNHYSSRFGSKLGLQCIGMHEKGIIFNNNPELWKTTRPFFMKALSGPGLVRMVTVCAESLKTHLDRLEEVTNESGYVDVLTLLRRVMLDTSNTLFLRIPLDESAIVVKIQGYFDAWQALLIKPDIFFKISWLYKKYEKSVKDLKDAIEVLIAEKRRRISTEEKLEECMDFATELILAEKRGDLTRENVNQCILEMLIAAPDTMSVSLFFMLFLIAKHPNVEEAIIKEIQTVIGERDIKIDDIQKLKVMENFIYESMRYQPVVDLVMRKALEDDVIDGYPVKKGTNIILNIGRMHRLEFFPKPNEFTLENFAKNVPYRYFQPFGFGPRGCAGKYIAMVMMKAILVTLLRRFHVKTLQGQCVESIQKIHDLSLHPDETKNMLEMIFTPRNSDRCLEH

[15] = Antioxidant activity assessed as radical scavenging activity; format: physicochemical
Staphylococcus aureus = test: Antibacterial activity against Staphylococcus aureus; format: functional
P388 = test: Cytotoxicity against mouse P388 cells; format: functional, cell-based

Kallikrein-7, sequence (P49862 whole entry): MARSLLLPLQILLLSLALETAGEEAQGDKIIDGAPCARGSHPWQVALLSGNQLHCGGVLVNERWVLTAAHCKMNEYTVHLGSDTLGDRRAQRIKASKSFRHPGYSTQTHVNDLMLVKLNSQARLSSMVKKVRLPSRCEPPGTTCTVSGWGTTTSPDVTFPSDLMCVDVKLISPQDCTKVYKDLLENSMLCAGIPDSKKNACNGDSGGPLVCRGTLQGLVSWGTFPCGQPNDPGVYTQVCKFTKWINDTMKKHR

Ki (Kallikrein-5): 22.9 µM
SMILES: COc1cc2c(OC)c3cc(C)oc(=O)c3c(O)c2c(O)c1-c1c(OC)cc2c(OC)c3cc(C)oc(=O)c3c(O)c2c1O

SMILES: CC(C)C[C@H](NC(=O)[C@@H](O)[C@@H](O)[C@@H](N)CC(=O)O)[C@@H]1Cc2cccc(O)c2C(=O)O1
Activity (Rattus norvegicus): 100%

SMILES: Cc1c(O)cc2c(c1O)C(=O)O[C@H](CO)C2
IC50 (HepG2): 6.41 µM
IC50 (MCF7 [1]): 6.67 µM

SMILES: CC(C)C[C@H](NC(=O)C[C@@H](O)[C@H]1O[C@](C)(O)[C@H](C)NC1CC(N)=O)[C@@H]1Cc2cccc(O)c2C(=O)O1 (some centres undefined)
inhibition of growth at 50 µM (Echinochloa frumentacea): 7%

SMILES: Cc1c(O)cc2c(c1O)C(=O)O[C@H](C)C2
IC50 (HepG2): 6.41 µM
IC50 (MCF7 [1]): 6.67 µM

SMILES: COc1c(O)c(-c2c(O)c(OC)c(O)c3c(=O)oc(C)cc23)c2cc(C)oc(=O)c2c1O
IC50 (KB [2]): 24.4 µg/mL (≈ 55.2 µM)
IC50 (NCI-H187 [3]): 8.31 µg/mL (≈ 18.8 µM)
IC50 (KB [4]): 24.4 µg/mL (≈ 55.2 µM)
IC50 (NCI-H187 [5]): 8.31 µg/mL (≈ 18.8 µM)

SMILES: C/C=C/CC[C@H]1OC(=O)c2c(O)c(CC=C(C)C)cc(O)c2[C@H]1OC
selectivity ratio [6]: > 15

SMILES: CC(C)C[C@H](NC(=O)[C@@H](O)[C@H]1OC(=O)C[C@@H]1N)[C@@H]1Cc2cccc(O)c2C(=O)O1
Activity (Rattus norvegicus): 83%

SMILES: CCCCC[C@H]1OC(=O)c2c(O)c(CC=C(C)C)cc(O)c2[C@H]1OC
selectivity ratio [6]: > 15

SMILES: COc1cc(OC)c2c(c1CC=C(C)C)C[C@@H](C)OC2=O
inhibition at 20 µM (Tobacco mosaic virus [7]): 28.6%
IC50 (MCF7 [8]): 4 µM
IC50 (A549 [9]): 3.8 µM

SMILES: C[C@@H]1Cc2cc(O)c(C=O)c(O)c2C(=O)O1
IC50 (HepG2): 6.41 µM
IC50 (MCF7 [1]): 6.67 µM

SMILES: COc1c(O)cc2c(c1CC=C(C)C)C[C@@H](C)OC2=O
inhibition at 20 µM (Tobacco mosaic virus [7]): 28.6%
IC50 (MCF7 [8]): 4 µM
IC50 (A549 [9]): 3.8 µM

SMILES: CC(=O)Cc1cc2c(CCCO)cc(O)cc2c(=O)o1
inhibition at 20 µM (Tobacco mosaic virus [10]): 28.4%
IC50 [11]: 2.8 µM
IC50 (A549 [12]): 2.8 µM
IC50 (SH-SY5Y): 2.8 µM
IC50 [13]: 2.8 µM
IC50 (MCF7 [14]): 2.8 µM

SMILES: CC(C)C[C@H](NC(=O)[C@@H](O)[C@H]1O[C@](C)(O)[C@@]2(C)NC(=O)C[C@@H]1N2)[C@@H]1Cc2cccc(O)c2C(=O)O1
inhibition of growth at 50 µM (Echinochloa frumentacea): 82%

SMILES: CC[C@@H]1Cc2cc(O)cc(O)c2C(=O)O1
IC50 (HepG2): 6.41 µM
IC50 (MCF7 [1]): 6.67 µM

Ki (Kallikrein-5): 22.9 µM
Ki (Kallikrein-7): 12.2 µM
SMILES: COC1=C(c2c(OC)cc3c(c2O)C(=O)C2=C(C[C@H](C)OC2=O)C3=O)C(=O)c2c(O)c3c(c(O)c2C1=O)C[C@H](C)OC3=O

IC50 (Aromatase): 12.3 µM
IC50 [15]: 21.7 µM
SMILES: C[C@H](O)C/C=C/CCCCC1Cc2cc(O)cc(O)c2C(=O)O1 (some centres undefined)

MIC (Staphylococcus aureus): 12 µM (≈ 4.9 µg/mL)
SMILES: CC[C@H](N)[C@H](O)[C@H](O)CC(=O)N[C@@H](CC(C)C)[C@@H]1Cc2cccc(O)c2C(=O)O1
IC50 (P388): 15 µM

SMILES: CC(C)C[C@H](NC(=O)[C@@H](O)[C@@H](O)[C@@H](N)CC(N)=O)[C@@H]1Cc2cccc(O)c2C(=O)O1
Activity (Rattus norvegicus): 72%

SMILES: CC1(C)CCc2c(cc(O)c3c2CC(CO)OC3=O)O1 (centres undefined)
inhibition at 20 µM (Tobacco mosaic virus [7]): 33.8%

SMILES: COc1ccc(CCCO)c2cc(CC(C)=O)oc(=O)c12
inhibition at 20 µM (Tobacco mosaic virus [10]): 30.6%
IC50 [11]: 2.8 µM
IC50 (A549 [12]): 2.8 µM
IC50 (SH-SY5Y): 2.8 µM
IC50 [13]: 2.8 µM
IC50 (MCF7 [14]): 2.8 µM

SMILES: CCCC1Cc2cc(O)c(Br)c(O)c2C(=O)O1 (centres undefined)
IC50 (P388): 0.19 µg/mL

SMILES: COc1cc2c(c3c1OC(C)(C)CC3=O)C[C@@H](C)OC2=O
inhibition at 20 µM (Tobacco mosaic virus [7]): 28.6%
IC50 (MCF7 [8]): 4 µM
IC50 (A549 [9]): 3.8 µM
